# Test results reported in patent US20230242641A1, “SLAMF7 CARS” (JULIUS-MAXIMILIANS-UNIVERSITÄT WÜRZBURG, priority 2020, published 2023).
# Where two headings read alike, the source gives them in different places.
# B1: SLAMF7 binding chimeric antigen receptor (CAR) polypeptide, expressed on human T cells (other)
# chain: EVQLVESGGGLVQPGGSLRLSCAASGFDFSRYWMSWVRQAPGKGLEWIGEINPDSSTINYAPSLKDKFIISRDNAKNSLYLQMNSLRAEDTAVYYCARPDGNYWYFDVWGQGTLVTVSSGGGGSGGGGSGGGGSDIQMTQSPSSLSASVGDRVTITCKASQDVGIAVAWYQQKPGKVPKLLIYWASTRHTGVPDRFSGSGSGTDFTLTISSLQPEDVATYYCQQYSSYPYTFGQGTKVEIKESKYGPPCPPCPAPPVAGPSVFLFPPKPKDTLMISRTPEVTCVVVDVSQEDPEVQFNWYVDGVEVHNAKTKPREEQFQSTYRVVSVLTVLHQDWLNGKEYKCKVSNKGLPSSIEKTISKAKGQPREPQVYTLPPSQEEMTKNQVSLTCLVKGFYPSDIAVEWESNGQPENNYKTTPPVLDSDGSFFLYSRLTVDKSRWQEGNVFSCSVMHEALHNHYTQKSLSLSLGKMFWVLVVVGGVLACYSLLVTVAFIIFWVRSKRSRGGHSDYMNMTPRRPGPTRKHYQPYAPPRDFAAYRSRVKFSRSADAPAYQQGQNQLYNELNLGRREEYDVLDKRRGRDPEMGGKPRRKNPQEGLYNELQKDKMAEAYSEIGMKGERRRGKGHDGLYQGLSTATKDTYDALHMQALPPR
# notes: also called SLAMF7 CAR; SLAMF7-CAR
# Assays:
# MM.1S cells = settings: cited from earlier work
# SLAMF7 = settings: cited from earlier work
# multiple myeloma = settings: cited from earlier work
# [1] = tested on: CD34+ hematopoietic stem cells; settings: cited from earlier work
# CAR-T cell-induced CRS = settings: 45 pediatric and adult patients; 31 patients; 95% CI: 53%-82%; cited from earlier work
# [2] = target: T1, mouse SLAMF7 molecule linked to a Twin-Strep Tag (mice, UniProt Q8BHK6 23-224, limits assumed); assay: flow cytometry: LV-RP cells incubated with Twin-Strep tagged SLAMF7 of different species, stained with anti-Strep Tag antibody (FIG. 37)
# T1 construct: also called SLAMF7 of mice; not shown: Twin-Strep Tag
# Source text: SLAMF7 molecules linked to a Twin-Strep Tag were stained by an anti-Strep Tag antibody.
molecule,measurement,setting,value
CC(C)C[C@H](NC(=O)[C@H](Cc1ccccc1)NC(=O)c1cnccn1)B(O)O [Bortezomib],eradication of MM.1S,MM.1S cells; after 72 hours of treatment,less than 30%
Nc1cccc2c1CN(C1CCC(=O)NC1=O)C2=O (stereo not drawn) [Lenalidomide],eradication of MM.1S,MM.1S cells; after 72 hours of treatment,about 40%
N[C@@H](Cc1ccc(N(CCCl)CCCl)cc1)C(=O)O [Melphalan],eradication of MM.1S,MM.1S cells; after 48 hours of treatment,less than 40%
Elotuzumab: SLAMF7-specific monoclonal antibody huLuc63,species cross-reactivity,SLAMF7,lack of species cross-reactivity
same,interim overall survival rate,multiple myeloma; after three years,60%
same,rate of progression-free survival,"multiple myeloma; at one year after beginning of treatment, elotuzumab group vs control group (only Lenalidomid and dexmethason)",68%
same,infection rate compared to the control group,multiple myeloma; in vivo,No significant increase in the infection rate
same,lymphocyte reduction after the initial infusion,multiple myeloma; in vivo,77%
same,eradication of MM.1S,MM.1S cells; after 72 hours of treatment,less than 70%
same,binding to CD34+ hematopoietic stem cells,[1],No binding
tocilizumab: recombinant humanized monoclonal antibody that blocks IL-6 from binding to its receptor,patients achieving a response (resolution of CRS within 14 days of the first dose),CAR-T cell-induced CRS,69%
B1,binding result,[2],no binding
